{"source": "patent US11629133B2", "about": "“Perfluoroaminoolefins and methods of making and using the same” (3M INNOVATIVE PROPERTIES COMPANY, priority 2018, dated 2023)", "type_in_all_cases": "physicochemical", "key": {"[1]": {"assay": "Pour point, determined visually", "settings": "lowest temperature at which sample flows within 5 sec held horizontally", "method": "[…] of the sample was placed in a vial and cooled in a liquid nitrogen-cooled pentane bath until it solidified. The sample was then allowed to warm slowly in the pentane bath by removal of the liquid nitrogen cooling source (typically an increase of 1-2° C./minute) and observed every 3-5° C."}, "[2]": {"assay": "Dielectric constant per ASTM D150-11", "settings": "measured at 1 kHz", "method": "The dielectric constant (tested per ASTM D150-11) of PE-1 was measured. The dielectric constant measured at 1 kHz was 1.98."}, "[3]": {"assay": "Thermal stability of PE-1 with absorbents, purity by GC-FID", "method": "GC-FID analysis was carried out on an Agilent Technologies 7890B GC System (Santa Clara Calif.) equipped with a Restek RtX-200 gas chromatography column (Bellefonte, Pa.) and helium carrier gas. Once material was injected into the column, the following temperature sequence was executed: 5 min hold at 40° C., 10° C./minute temperature increase over the span of 21 min to reach a final temperature of 250° C., and then a 15 min hold at 250° C. Data analysis by use of Agilent Open LAB CDSA ChemStation software enabled the determination of product purities and GC yields.\nThermal stability was measured by charging 1.0 g of PE-1 into glass vials and then adding a weighed amount of absorbent. The samples were stirred for 24 hours at 60° C., allowed to cool, and then analyzed by GC-FID for decomposition and purity changes."}}, "data": [{"molecule": "FC1=C(N2C(F)(F)C(F)(F)C(F)(F)C2(F)F)C(F)(F)C(F)(F)C1(F)F", "note": "[PE-2, 2,2,3,3,4,4,5,5-octafluoro-1-(perfluorocyclopent-1-en-1-yl)pyrrolidine]", "values": [{"measurement": "Pour point", "setting": "[1]", "value": "−33", "unit": "°C"}]}, {"molecule": "FC1=C(N2C(F)(F)C(F)(F)OC(F)(F)C2(F)F)C(F)(F)C(F)(F)C1(F)F", "note": "[PE-3, 2,2,3,3,5,5,6,6-octafluoro-4-(perfluorocyclopent-1-en-1-yl)morpholine]", "values": [{"measurement": "Pour point", "setting": "[1]", "value": "−49", "unit": "°C"}]}, {"molecule": "FC1=C(N2C(F)(F)C(F)(F)C(F)(F)C2(F)F)C(F)(F)C(F)(F)C(F)(F)C1(F)F", "note": "[PE-1, 2,2,3,3,4,4,5,5-octafluoro-1-(perfluorocyclohex-1-en-1-yl)pyrrolidine]", "values": [{"measurement": "Pour point", "setting": "[1]", "value": "−34", "unit": "°C"}, {"measurement": "dielectric constant", "setting": "[2]", "value": 1.98}, {"measurement": "Purity, %", "setting": "[3]; 4 Angstrom Molecular Sieves, stirred 24 hours at 60° C.", "value": 97.3, "unit": "%"}, {"measurement": "Purity, %", "setting": "[3]; Activated Carbon, stirred 24 hours at 60° C.", "value": 97.7, "unit": "%"}, {"measurement": "Purity, %", "setting": "[3]; Basic Alumina, stirred 24 hours at 60° C.", "value": 97.6, "unit": "%"}, {"measurement": "Purity, %", "setting": "[3]; K2CO3, stirred 24 hours at 60° C.", "value": 97.6, "unit": "%"}, {"measurement": "Purity, %", "setting": "[3]; No Absorbent, stirred 24 hours at 60° C.", "value": 97.7, "unit": "%"}, {"measurement": "Purity, %", "setting": "[3]; Silica Gel, stirred 24 hours at 60° C.", "value": 97.7, "unit": "%"}]}, {"molecule": "2,2,3,3,4,4,5,5-octafluoro-1-(perfluoropent-2-en-3-yl)pyrrolidine and 2,2,3,3,4,4,5,5-octafluoro-1-(perfluoropent-2-en-2-yl)pyrrolidine [PE-4]", "values": [{"measurement": "Pour point", "setting": "[1]", "value": "−90", "unit": "°C"}]}]}
